{"source": "paper PMC4971421", "about": "“Redox-Dependent Modulation of T-Type Ca^2+ Channels in Sensory Neurons Contributes to Acute Anti-Nociceptive Effect of Substance P” (Antioxidants & Redox Signaling, 2016)", "key": {"rat hind paw": {"system": "rat hind paw", "assay": "Cotton swab test (gentle touch)", "format": "in vivo", "conditions": "50 μl; 0.5 nmol/site; 8 min after injection", "description": "For measurement of sensitivity to gentle touch and mechanical hyperalgesia, two methods were used. (i) Cotton swab test was performed as previously described ([53]). Briefly, rats were allowed to acclimate in a cage with a wire mesh bottom for at least 30 min and then were manually probed with a “cotton swab” pulled from a Q-tip (to approximately three times the original size). A swab was applied in a sweeping motion underneath the rats’ paws, and the withdrawal responses were recorded. Five sweeps were applied in each test, with at least 10 s between each sweep; withdrawal score was calculated as a percentage of positive responses. (ii) The von Frey test was performed using a calibrated range of filaments with different bending forces (2, 4, 6, 8, 10, and 15 g; Stoelting Co.). A single filament was applied perpendicularly to the plantar surface of the hind paw for five times, with an interval of 5 s, and it was scored for withdrawal responses. Each force was probed five times, the number of withdrawals out of five trials was counted, and the percentage of withdrawal responses was calculated. Both types of assays were performed 8 min after the hind-paw drug injection."}, "Nav1.5": {"system": "Nav1.5", "conditions": "1 μM; cited from earlier work"}, "[1]": {"system": "T-type Ca^2+ channels (LVA Ca^2+ current) in DRG neurons", "assay": "LVA (T-type) Ca2+ current, whole-cell patch clamp, cultured small-diameter DRG neurons", "format": "cell-based, rat", "conditions": "1 μM; mean ± SEM, n = 7; SEM", "description": "(§1) DRG neurons from adult male Sprague–Dawley rats (170–180 g) were dissociated as previously described ([13], [29]) and cultured in DMEM supplemented with GlutaMax I, 10% fetal calf serum, penicillin (50 U/ml), and streptomycin (50 μg/ml) on glass coverslips that were coated with poly-D-lysine for 2–5 days in a humidified incubator (37°C, 5% CO2). No growth factors were added to the culture media. HEK 293 cells were cultured in the same DMEM media; cells were passaged every 2 days. Human NK1 receptor (GenBank accession No. AY462098) complementary DNA (cDNA) was from the Missouri Science and Technology cDNA Resource Center. WtCaV3.1 (GenBank accession No. AF027984), wtCaV3.2 (GenBank accession No. AF051946), CaV3.1Q172H, and CaV3.2H191Q were kindly provided by Dr E. Perez-Reyes (University of Virginia). HEK293 cells were transfected using Lipofectamine 2000 (Invitrogen) according to the manufacturer's instructions. ST101 was synthesized in house; Z944 was from Toronto Research Chemicals; PTX was from Enzo Life Science; and FluoZin-3AM was from Life Technologies. All other chemicals were from Sigma.\nAll recordings were made using Multiclamp 700B amplifier in combination with pCLAMP 10.4 software (Molecular Devices). Voltage-clamp recordings from DRG neurons were made using whole-cell patch clamp. The standard bath solution contained the following (in mM): 150 TEA-Cl; 2.5 CsCl; 2.5 CaCl2; 10 HEPES; 0.5 MgCl2; and 10 glucose (pH 7.4 adjusted with CsOH). The standard pipette solution contained the following (in mM): 110 CsCl; 3 MgCl2; 10 EGTA; 10 HEPES; 3 Mg-ATP; and 0.6 GTP (pH 7.4 adjusted with CsOH). The access resistance was typically within 4–8 MΩ. T-type calcium currents (LVA) were measured by 50 ms square voltage pulses to −40 mV from a holding potential of −90 mV. HVA currents were measured by 200 ms square voltage pulses to 0 mV from a holding potential of −90 mV.\nwhere y is the current inhibition; A1 and A2 are the maximum and minimum effects, respectively; x is the S9SP concentration; and nH is the Hill coefficient."}, "[2]": {"system": "high-voltage-activated (HVA) Ca^2+ currents in DRG neurons", "assay": "HVA Ca2+ current, whole-cell patch clamp, DRG neurons", "format": "cell-based, rat", "conditions": "1 μM", "description": "as §1, with “ST101 was synthesized in house; Z944 was from Toronto Research Chemicals; PTX was from Enzo Life Science; and FluoZin-3AM was from Life Technologies. All other chemicals were from Sigma.” left out\nAll recordings were made using Multiclamp 700B amplifier in combination with pCLAMP 10.4 software (Molecular Devices). […] T-type calcium currents (LVA) were measured by 50 ms square voltage pulses to −40 mV from a holding potential of −90 mV. HVA currents were measured by 200 ms square voltage pulses to 0 mV from a holding potential of −90 mV."}}, "data": [{"smiles": "CC(C)(C)NC(=O)CN1CCC(CNC(=O)c2cc(F)cc(Cl)c2)CC1", "note": "[Z944, N-[[1-[2-(tert-butylamino)-2-oxoethyl]piperidin-4-yl]methyl]-3-chloro-5-fluorobenzamide]", "values": [{"measurement": "sensitivity to light touch, cotton swab assay", "setting": "rat hind paw", "value": "produced a similar effect"}, {"measurement": "effect on Nav1.5", "setting": "Nav1.5", "value": "no significant effect"}, {"measurement": "inhibition of LVA current", "setting": "[1]", "value": "71.4% ± 2.7%"}, {"measurement": "effect on HVA current", "setting": "[2]", "value": "without a noticeable effect"}]}]}
